Experimental data from ChEMBL document CHEMBL3779818, “Design, synthesis and evaluation of a novel stacking nano-intercalator as an anti-tumor agent” (Medchemcomm, 2016).
pIC50: −log10 of the molar value. Active and inactive are the calls of the source. The calls are words filed in the database; no cut-off is given here.

Assays:
Heart = assay: Drug uptake in ICR mouse heart xenografted with mouse S180 cells at 1 umol/kg/day, po after 7 days; format: ADME, organism-based, CCRF S-180; conditions: in vivo, 168 h
Blood = assay: Drug uptake in ICR mouse blood xenografted with mouse S180 cells at 1 umol/kg/day, po after 7 days; format: ADME, organism-based, CCRF S-180; conditions: in vivo, 168 h
Lung = assay: Drug uptake in ICR mouse lung xenografted with mouse S180 cells at 1 umol/kg/day, po after 7 days; format: ADME, organism-based, CCRF S-180; conditions: in vivo, 168 h
Brain = assay: Drug uptake in ICR mouse brain xenografted with mouse S180 cells at 1 umol/kg/day, po after 7 days; format: ADME, organism-based, CCRF S-180; conditions: in vivo, 168 h
CCRF S-180 [1] = assay: Antiproliferative activity against mouse S180 cells assessed as cell viability after 48 hrs by MTT assay; format: functional, cell-based; conditions: CCRF S-180, 48 h
Mus musculus [2] = assay: Acute toxicity in ICR mouse xenografted with S180 cells assessed as kidney weight at 100 umol/kg, po; format: organism-based, CCRF S-180; conditions: in vivo
CCRF S-180 [3] = assay: Antiproliferative activity against mouse S180 cells at 3.5 uM after 24 hrs by confocal microscopy; format: functional, cell-based
Mus musculus [4] = assay: Acute toxicity in ICR mouse assessed as morphological changes in organs at 100 umol/kg, po administered as single dose observed for 7 days; format: organism-based; conditions: in vivo, 168 h
Calf thymus DNA [5] = assay: Induction of DNA intercalation of calf thymus DNA assessed as increase in fluorescence intensity at 345 nm using 80 uM calf thymus DNA by fluorescence spectroscopy; format: nucleic-acid assay; conditions: Bos taurus
Spleen = assay: Drug uptake in ICR mouse spleen xenografted with mouse S180 cells at 1 umol/kg/day, po after 7 days; format: ADME, organism-based, CCRF S-180; conditions: in vivo, 168 h
CCRF S-180 [6] = assay: Potency index, ratio of activity of Doxorubicin to test compound for antitumor activity against mouse S180 cells; format: functional
Calf thymus DNA [7] = assay: Induction of DNA intercalation of calf thymus DNA assessed as decrease in fluorescence intensity at 345 nm measured at 0.18 uM by fluorescence spectroscopy; format: nucleic-acid assay; conditions: Bos taurus
Calf thymus DNA [8] = assay: Induction of DNA intercalation of calf thymus DNA assessed as increase in absorption at 0.9 uM using 4 uM calf thymus DNA measured at 258 nm by UV spectrophotometry; format: nucleic-acid assay; conditions: Bos taurus
Tumour = assay: Drug level in tumor in ICR mouse xenografted with S180 cells at 1 umol/kg/day, po after 7 days; format: ADME, organism-based, Neoplasm, CCRF S-180; conditions: in vivo, 168 h
[9] = Retention time of compound by HPLC method; format: physicochemical
Mus musculus [10] = assay: Acute toxicity in ICR mouse xenografted with S180 cells assessed as brain weight at 100 umol/kg, po; format: organism-based, CCRF S-180; conditions: in vivo
HeLa [11] = assay: Antiproliferative activity against human HeLa cells at 3.5 uM after 24 hrs by confocal microscopy; format: functional, cell-based
Mus musculus [12] = assay: Acute toxicity in ICR mouse assessed as change in serum creatinine level at 100 umol/kg, po administered as single dose measured on 7th day; format: organism-based; conditions: in vivo
Mus musculus [13] = assay: Acute toxicity in ICR mouse xenografted with S180 cells assessed as heart weight at 100 umol/kg, po; format: organism-based, CCRF S-180; conditions: in vivo
Calf thymus DNA [14] = assay: Induction of DNA intercalation of calf thymus DNA assessed as increase in absorption at 0.9 uM using 4 uM calf thymus DNA measured at 208 nm by UV spectrophotometry; format: nucleic-acid assay; conditions: Bos taurus
Kidney = assay: Drug uptake in ICR mouse kidney xenografted with mouse S180 cells at 1 umol/kg/day, po after 7 days; format: ADME, organism-based, CCRF S-180; conditions: in vivo, 168 h
Calf thymus DNA [15] = assay: Induction of DNA intercalation of calf thymus DNA assessed as increase in absorption at 7.4 uM measured at 208 nm using 200 uM calf thymus DNA by UV spectrophotometry; format: nucleic-acid assay; conditions: Bos taurus
Mus musculus [16] = assay: Acute toxicity in ICR mouse assessed as change in serum AST level at 100 umol/kg, po administered as single dose measured on 7th day; format: organism-based; conditions: in vivo
CCRF S-180 [17] = assay: Antitumor activity against mouse S180 cells xenografted in po dosed ICR mouse assessed as decrease in tumor growth administered daily for 14 days; format: functional, organism-based
HeLa [18] = assay: Antiproliferative activity against human HeLa cells assessed as cell viability after 48 hrs by MTT assay; format: functional, cell-based
Mus musculus [19] = assay: Acute toxicity in ICR mouse assessed as normal behavior at 100 umol/kg, po administered as single dose observed for 7 days; format: organism-based; conditions: in vivo, 168 h
Mus musculus [20] = assay: Acute toxicity in ICR mouse assessed as change in serum ALT level at 100 umol/kg, po administered as single dose measured on 7th day; format: organism-based; conditions: in vivo
Mus musculus [21] = assay: Acute toxicity in ICR mouse xenografted with S180 cells assessed as liver weight at 100 umol/kg, po; format: organism-based, CCRF S-180; conditions: in vivo
Mus musculus [22] = assay: Acute toxicity in ICR mouse xenografted with S180 cells assessed as spleen weight at 100 umol/kg, po; format: organism-based, CCRF S-180; conditions: in vivo
Calf thymus DNA [23] = assay: Induction of DNA intercalation of calf thymus DNA assessed as decrease in absorption at 7.4 uM measured at 258 nm using 200 uM calf thymus DNA by UV spectrophotometry; format: nucleic-acid assay; conditions: Bos taurus
Liver = assay: Drug uptake in ICR mouse liver xenografted with mouse S180 cells at 1 umol/kg/day, po after 7 days; format: ADME, organism-based, CCRF S-180; conditions: in vivo, 168 h
Mus musculus [24] = assay: Cardiotoxicity in ICR mouse xenografted with mouse S180 cells; format: toxicity, organism-based, CCRF S-180; conditions: in vivo

Compound: O=C1[C@@H]2Cc3c([nH]c4ccccc34)CN2C(=O)[C@@H]2Cc3c([nH]c4ccccc34)CN12
- Drug uptake (Heart): Not Active
- Drug uptake (Blood): Not Active
- Drug uptake (Lung): Not Active
- Drug uptake (Brain): Not Active
- pIC50 (CCRF S-180 [1]): 6.41
- Activity (Mus musculus [2]): Non-toxic
- Activity (CCRF S-180 [3]): Active
- Activity (Mus musculus [4]): Non-toxic
- Activity (Calf thymus DNA [5]): Active
- Drug uptake (Spleen): Not Active
- Ratio (CCRF S-180 [6]): 2
- Activity (Calf thymus DNA [7]): Active
- Activity (Calf thymus DNA [8]): Active
- Drug uptake (Tumour): Active
- Retention_time [9]: 5.704 min
- Activity (Mus musculus [10]): Non-toxic
- Activity (HeLa [11]): Active
- Activity (Mus musculus [12]): Non-toxic
- Activity (Mus musculus [13]): Non-toxic
- Activity (Calf thymus DNA [14]): Active
- Drug uptake (Kidney): Not Active
- Activity (Calf thymus DNA [15]): Active
- Activity (Mus musculus [16]): Non-toxic
- Activity (CCRF S-180 [17]): Dose-dependent effect
- pIC50 (HeLa [18]): 5.46
- Activity (Mus musculus [19]): Non-toxic
- Activity (Mus musculus [20]): Non-toxic
- Activity (Mus musculus [21]): Non-toxic
- Activity (Mus musculus [22]): Non-toxic
- Activity (Calf thymus DNA [23]): Active
- Drug uptake (Liver): Not Active
- Activity (Mus musculus [24]): Non-toxic

Compound: COc1cccc2c1C(=O)c1c(O)c3c(c(O)c1C2=O)C[C@@](O)(C(=O)CO)C[C@@H]3O[C@H]1C[C@H](N)[C@H](O)[C@H](C)O1 [DOXORUBICIN]
- Activity (Mus musculus [24]): Toxic
